Measured values reported in US11072626B2, “Small molecule inhibitors of Galectin-3” (BRISTOL-MYERS SQUIBB COMPANY, priority 2017, dated 2021).

What follows are compounds tested against His-tagged recombinant human Gal-3 (hGal-3) (Homo sapiens (Human), UniProt P17931) (assay: Gal-3 HTRF assay (hGal-3 / B-ASF)). Details: 15 nM hGal-3, 15 nM B-ASF, table after Example 20, read-out: hGal3 IC50.
Assay type: binding
Protocol: ASSAY BUFFER Composition: 25 mM HEPES, 100 mM NaCl, 0.005% Tween 20, 0.05% BSA prepared in sterile water (all reagents from Sigma)
Positive Control: 100% DMSO (1 μl)+His-tagged hGal-3 (20 μL)+B-ASF (20 μl)+Anti-His Terbium Antibody (5 μl)+Strep d2 Antibody (5 μl).
Negative Control: 100% DMSO (1 μl)+His-tagged hGal-3 (20μL)+Anti His Terbium Antibody (5 μl)+Strep d2 Aantibody (5 μl).
PROTOCOL: The Gal-3 assays were performed in 384 white Opti plates in three replicates at room temperature with gentle shaking at 250-300 rpm From the original stocks, […] working stock concentrations of His-tagged recombinant human Gal-3 (hGal-3) and that of B-ASF were prepared. From the working stock, 20 μl of hGal-3 (15 nM) and 20 μl B-ASF (15 nM) were added to the plates. In Negative Control, only hGal-3 was added. A concentration range of 50× working stocks were prepared for the compounds in 100% DMSO. Aliquots of 1 uL of the compounds were added to the wells and pre-incubated with 20 μl hGal-3 per well for 30 minutes Then 20 μl B-ASF were added and incubated for another 1 hour. To detect the signal, 5 μ(final conc. of 1.0 nM) terbium labelled Anti-His antibody was added and incubated for 30 min followed by adding 5 μ(final conc. of 20 nM) Streptavidin d2 and incubation for another 1 hour. The assay signal was detected using HTRF screen protocol (Excitation wavelength=340 nm, emission wavelength=615 nm/665 nm) on Envision 2104 Multilabel Reader. Data analysed using Toolset and Curve Master. Results are reported in the experimental section (IC50 in μM).

His-tagged recombinant human Gal-3 (hGal-3), sequence (P17931 whole entry): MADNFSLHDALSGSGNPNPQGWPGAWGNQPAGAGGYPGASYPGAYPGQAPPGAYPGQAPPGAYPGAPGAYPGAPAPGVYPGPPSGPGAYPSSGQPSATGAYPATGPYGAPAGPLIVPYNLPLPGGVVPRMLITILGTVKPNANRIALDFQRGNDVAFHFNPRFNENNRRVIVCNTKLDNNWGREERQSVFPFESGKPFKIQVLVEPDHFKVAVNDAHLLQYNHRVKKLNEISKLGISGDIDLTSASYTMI

SMILES | IC50 [µM]
O=C(CO[C@@H]1[C@@H](n2cc(-c3cc(F)c(F)c(F)c3)nn2)[C@@H](O)[C@@H](CO)O[C@@H]1Sc1ccc(Cl)c(Cl)c1)N1CC[C@@H](O)C1 [Example 27] | 0.07

Same assay, conditions: 15 nM hGal-3, 15 nM B-ASF, table after Example 46, read-out: hGal3 IC50

SMILES | IC50 [µM]
O=C(O)CO[C@@H]1[C@@H](n2cc(-c3cc(F)ccn3)nn2)[C@@H](O)[C@@H](CO)O[C@@H]1Sc1ccc(Cl)c(Cl)c1 [Example 59] | 5.55
O=C(O)CO[C@@H]1[C@@H](n2cc(-c3cccc(F)n3)nn2)[C@@H](O)[C@@H](CO)O[C@@H]1Sc1ccc(Cl)c(Cl)c1 [Example 57] | 0.31
O=C(O)CO[C@@H]1[C@@H](n2cc(-c3cc(F)cc(F)c3)nn2)[C@@H](O)[C@@H](CO)O[C@@H]1Sc1ccc(Cl)c(Cl)c1 [Example 52] | 0.25

Same assay, conditions: 15 nM hGal-3, 15 nM B-ASF, three replicates, room temperature, read-out: hGal3 IC50

SMILES | IC50 [µM]
O=C(O)/C=C/O[C@@H]1[C@@H](n2cc(-c3cc(F)c(F)c(F)c3)nn2)[C@@H](O)[C@@H](CO)O[C@@H]1Sc1ccc(Cl)c(Cl)c1 [Example 40 (trans-isomer), (E)-3-(((2R,3R,4S,5R,6R)-2-((3,4-dichlorophenyl)thio)-5-hydroxy-6-(hydroxymethyl)-4-(4-(3,4,5-trifluorophenyl)-1H-1,2,3-triazol-1-yl)tetrahydro-2H-pyran-3-yl)oxy)acrylic acid] | 0.06
CCO[C@@H]1[C@@H](n2cc(-c3cc(F)c(F)c(F)c3)nn2)[C@@H](O)[C@@H](CO)O[C@@H]1[S+]([O-])c1ccc(Cl)c(Cl)c1 (single isomer, unassigned) [Example 9 (isomer-1)] | 0.1
O=C(O)CO[C@@H]1[C@@H](n2cc(-c3ccccc3)nn2)[C@@H](O)[C@@H](CO)O[C@@H]1Sc1ccc(Cl)c(Cl)c1 [Example 46, 2-(((2R,3R,4S,5R,6R)-2-((3,4-dichlorophenyl)thio)-5-hydroxy-6-(hydroxymethyl)-4-(4-phenyl-1H-1,2,3-triazol-1-yl)tetrahydro-2H-pyran-3-yl)oxy)acetic acid] | 1.36
OC[C@H]1O[C@H](Sc2ccc(Cl)c(Cl)c2)[C@H](F)[C@@H](n2cc(-c3cc(F)c(F)c(F)c3)nn2)[C@H]1O (single isomer, unassigned) [Example 62 (isomer-1)] | 2.2
CCO[C@@H]1[C@@H](n2cc(-c3cc(F)c(F)c(F)c3)nn2)[C@@H](O)[C@@H](CO)O[C@@H]1S(=O)(=O)c1ccc(Cl)c(Cl)c1 [Example 10, (2R,3R,4S,5R,6R)-6-((3,4-dichlorophenyl)sulfonyl)-5-ethoxy-2-(hydroxymethyl)-4-(4-(3,4,5-trifluorophenyl)-1H-1,2,3-triazol-1-yl)tetrahydro-2H-pyran-3-ol] | 0.2
CO[C@@H]1[C@@H](n2cc(-c3cc(F)c(F)c(F)c3)nn2)[C@@H](O)[C@@H](CO)O[C@@H]1Sc1ccc(Cl)c(Cl)c1 [Example 1, (2R,3R,4S,5R,6R)-6-((3,4-dichlorophenyl)thio)-2-(hydroxymethyl)-5-methoxy-4-(4-(3,4,5-trifluorophenyl)-1H-1,2,3-triazol-1-yl)tetrahydro-2H-pyran-3-ol] | 0.7
O=C(CO[C@@H]1[C@@H](n2cc(-c3cc(F)c(F)c(F)c3)nn2)[C@@H](O)[C@@H](CO)O[C@@H]1[S@@+]([O-])c1ccc(Cl)c(Cl)c1)N1CCC[C@H](O)C1 [Example 36, 2-(((2R,3R,4S,5R,6R)-2-((S)-(3,4-dichlorophenyl)sulfinyl)-5-hydroxy-6-(hydroxymethyl)-4-(4-(3,4,5-trifluorophenyl)-1H-1,2,3-triazol-1-yl)tetrahydro-2H-pyran-3-yl)oxy)-1-((S)-3-hydroxypiperidin-1-yl)ethan-1-one] | 0.07
O=C(CO[C@@H]1[C@@H](n2cc(-c3cc(F)c(F)c(F)c3)nn2)[C@@H](O)[C@@H](CO)O[C@@H]1[S@@+]([O-])c1ccc(Cl)c(Cl)c1)N1CCOCC1 [Example 37, 2-(((2R,3R,4S,5R,6R)-2-((S)-(3,4-dichlorophenyl)sulfinyl)-5-hydroxy-6-(hydroxymethyl)-4-(4-(3,4,5-trifluorophenyl)-1H-1,2,3-triazol-1-yl)tetrahydro-2H-pyran-3-yl)oxy)-1-morpholinoethan-1-one] | 0.08
O=C(O)/C=C\O[C@@H]1[C@@H](n2cc(-c3cc(F)c(F)c(F)c3)nn2)[C@@H](O)[C@@H](CO)O[C@@H]1Sc1ccc(Cl)c(Cl)c1 [Example 40 (cis-isomer), (Z)-3-(((2R,3R,4S,5R,6R)-2-((3,4-dichlorophenyl)thio)-5-hydroxy-6-(hydroxymethyl)-4-(4-(3,4,5-trifluorophenyl)-1H-1,2,3-triazol-1-yl)tetrahydro-2H-pyran-3-yl)oxy)acrylic acid] | 0.68
CCO[C@@H]1[C@@H](n2cc(-c3cc(F)c(F)c(F)c3)nn2)[C@@H](O)[C@@H](CO)O[C@@H]1[S+]([O-])c1ccc(Cl)c(Cl)c1 (single isomer, unassigned) [Example 9 (isomer-2)] | 0.34
O=C(O)CO[C@@H]1[C@@H](n2cc(-c3cc(F)c(F)c(F)c3)nn2)[C@@H](O)[C@@H](CO)O[C@@H]1[S+]([O-])c1ccc(Cl)c(Cl)c1 (single isomer, unassigned) [18 (isomer-1)] | 0.017
CCOC(=O)CO[C@@H]1[C@@H](n2cc(-c3cc(F)c(F)c(F)c3)nn2)[C@@H](O)[C@@H](CO)O[C@@H]1Sc1ccc(Cl)c(Cl)c1 [Example 14, ethyl 2-(((2R,3R,4S,5R,6R)-2-((3,4-dichlorophenyl)thio)-5-hydroxy-6-(hydroxymethyl)-4-(4-(3,4,5-trifluorophenyl)-1H-1,2,3-triazol-1-yl)tetrahydro-2H-pyran-3-yl)oxy)acetate] | 0.38
CC(O[C@@H]1[C@@H](n2cc(-c3cc(F)c(F)c(F)c3)nn2)[C@@H](O)[C@@H](CO)O[C@@H]1S(=O)(=O)c1ccc(Cl)c(Cl)c1)C(=O)O (single isomer, unassigned) [Example 39 (isomer-2)] | 0.02
CO[C@@H]1[C@@H](n2nncc2C(=O)O)[C@@H](O)[C@@H](CO)O[C@@H]1Sc1ccc(Cl)c(Cl)c1 [Example 45, 1-((2R,3R,4S,5R,6R)-2-((3,4-dichlorophenyl)thio)-5-hydroxy-6-(hydroxymethyl)-3-methoxytetrahydro-2H-pyran-4-yl)-1H-1,2,3-triazole-5-carboxylic acid] | 1.52
